# Laboratory results taken from patent publication EP0195433A1, “Amide derivatives processes for preparing them and use thereof” (GREEN CROSS CORPORATION, priority 1985, dated 1986).
# Key:
# [1] = tested on: secretion of gastric juice; test: Inhibition of gastric juice secretion, pyloric ligation (method of Shay et al.); format: in vivo, Wistar male rats; conditions: 25 mg/kg, i.p., 4 hours after pyloric ligation; for Total Peptic Activity: casein as substrate; for Total Acid Output: titration with 0.02N NaOH
# Protocol: The activity of each of the test compounds in inhibiting the secretion of gastric juice was measured by pyloric ligation in accordance with the method of Shay et al. described in H. Shay, S.A. Komarov, S.S. Fels et al.; Gastroenterology, 5, 43 (1945). Groups each consisting of 8 - 10 Wistar male rats weighing 150 - 200 g which had been starved for 48 hours were subjected to abdominal incision under ether anesthetization. After pyloric ligation, the incised abdomen of each animal was closed and the animal was kept away from food and water for 4 hours. The test compound was suspended in 5% gum arabic (in physiological saline) to give a concentration of 5 mg/ml, and the suspension was administered intraperitoneally to each rat in a dose of 25 mg/kg immediately after the closure of the incised abdomen. Four hours later, each rat was sacrificed with chloroform and the stomach was extracted. The gastric juice contained in the stomach was withdrawn and checked for its volume, total acidity and total pepsin activity.
# The total acidity was determined by titration with 0.02N NaOH using phenolphthalein as an indicator. The total pepsin activity was determined in accordance with the method of Anson; Brit. J. Pharmacol., 13, 54 (1958) using casein as a substrate.
# HCl-ethanol ulcers = test: HCl-ethanol ulcer; format: in vivo, Wistar male rats; conditions: for Percent inhibition: 20 mg/kg intraperitoneally; for Ulcer index: 20 mg/kg intraperitoneally 2 hours before 1.5 ml of 15 mM HCl in 60% ethanol orally, 1 hour
# Protocol: HCl-ethanol ulcers were induced in Wistar male rats in accordance with the method described in S. Okabe, S. Ueki et al.; Oyo Yakuri, 27, 829 (1984).
# The procedures of (2) were repeated except that 2 hours after the intraperitoneal injection of a selected test compound, 1.5 ml of 15 mM HC1 in 60% ethanol was administrered orally to each rat, which thereafter was kept for an additional 1 hour.
# Aspirin ulcers = test: Aspirin ulcer; format: in vivo, Wistar male rats; conditions: 20 mg/kg intraperitoneally, 7 hours; for Ulcer index: aspirin 150 mg/kg orally, total length of ulcers
# Protocol: Aspirin ulcers were produced in Wistar male rats (body weight: 150 - 200 g) in accordance with the method described in S. Okabe, K. Takeuchi et al.; Jpn. J. Pharmacol., 24, 363 (1974).
# The rats were starved for 24 hours and subjected to pyloric ligation. Immediately thereafter, 150 mg/kg of aspirin suspended in 5% gum arabic was administrered orally to each rat which was simultaneously injected with a selected test compound (20 mg/kg) intraperitoneally.
# The rats were kept away from food and water for 7 hours. Thereafter, the stomach was extracted from each animal under ether anesthetization and fixed in formalin. The total length of the ulcers occurring in the glands of the extracted stomach was measured and used as an ulcer index.
# Stress ulcers = test: Stress ulcer (restraint and water immersion); format: in vivo, Wistar male rats; conditions: 20 mg/kg intraperitoneally; for Ulcer index: restrained and immersed in water (22 ± 1°C) for 7 hours
# Protocol: Stress ulcers were induced in Wistar male rats in accordance with the method described in K. Takagi and S. Okabe; Jpn. J. Pharmacol., 18, 9 (1968).
# The procedures of (2) were repeated except that the rats were restrained immediately after the administration of a selected test compound and immersed in water (22 ± 1°C) for 7 hours.
# granuloma pouch = test: Anti-inflammatory activity, granuloma pouch method; format: in vivo, SD male rats; conditions: 25 mg/kg/day orally for 8 consecutive days, eight days after croton oil injection; for Weight of Pouch: wet weight
# Protocol: Pouches were made under the dorsal skin of SD male rats (body weight: 150 - 180 g) by injecting 20 ml of N2 gas in accordance with the method described in E. Itoga and Y. Miyake; Oyo yakuri, 66, 316 (1970). The rats were subsequently injected with 1 ml of 1% croton oil dissolved in cottonseed oil. Eight days after injection, the wet weight of each pouch and the volume of exudate therefrom were measured. Each of the test compounds was administered orally for 8 consecutive days on a single-dose-a-day basis..
# carrageenan paw edema = test: Anti-inflammatory activity, carrageenan paw edema method; format: in vivo, SD male rats; conditions: 25 mg/kg, i.p., 30 minutes before carrageenan; four hours after injection
# Protocol: SD male rats (body weight: 150 - 180 g) were starved overnight and 25 mg/kg of a selected test compound was administered intraperitoneally to each rat. Thirty minutes later, 0.1 ml of a 1.5% solution of carrageenan in physiological saline was injected under the skin of the paw of a hind leg. Four hours after injection, the volume of the treated leg was measured with a mercury manometer and compared with the value prior to carrageenan injection in order to calculate the percentages of edema and its inhibition. Each of the test compounds was administered in a concentration of 5 mg/ml as a suspension in 5% gum arabic in physiological saline.
# Acetic acid ulcers = test: Acetic acid ulcer; format: in vivo, Wistar male rats; conditions: 14 consecutive days
# Protocol: .Acetic acid ulcers were induced in Wistar male rats in accordance with the method described in K. Takagi, S. Okabe et al.,; Jpn. J. Pharmacol., 19, 418 (1969).
# Starting on the day of operation, each of the test compounds was administered orally to each rat for 14 consecutive days on a two-dose-a-day basis. The rats were starved for 24 hours after administration of the final dose. They then were sacrificed with chloroform and the stomach was extracted from each animal and fixed in formalin. The product of the length and breadth of each […] was determined and used as an ulcer index.
smiles,measurement,setting,value
"CCCCCCCCC=CC(=O)O [2-Undecenoic acid, reference compound]",Gastric Volume,[1],2.46 ml/100 g wt.
same,Total Peptic Activity,[1],159.8 mg as tyrosine/ 100 g wt.
same,Total Acid Output,[1],318.1 μ Eq/100 g wt.
"CCCCCCCCC=CC(=O)NCCSSCCNC(=O)C=CCCCCCCCC [Compound 1, [SCH2CH2NH-COCH=CH(CH2)7CH3]2]",Gastric Volume,[1],2.10 ml/100 g wt.
same,Total Peptic Activity,[1],139.9 mg as tyrosine/ 100 g wt.
same,Total Acid Output,[1],229.2 μ Eq/100 g wt.
"CCCCCCCCC=CC(=O)NCCSCC(N)=O [Compound 2, NH2COCH2SCH2CH2NH-COCH=CH(CH2)7CH3]",Percent inhibition,HCl-ethanol ulcers,70.5%
same,Ulcer index,HCl-ethanol ulcers,12.2
same,Percent inhibition,Aspirin ulcers,76.4%
same,Ulcer index,Aspirin ulcers,4.0
same,Percent inhibition,Stress ulcers,69.1%
same,Ulcer index,Stress ulcers,9.0
same,Gastric Volume,[1],0.97 ml/100 g wt.
same,Total Peptic Activity,[1],70.9 mg as tyrosine/ 100 g wt.
same,Total Acid Output,[1],97.4 μ Eq/100 g wt.
"CCCCCC=CC(=O)NCCSSCCNC(=O)C=CCCCCC [Compound 3, [SCH2CH2NH-COCH=CH(CH2)4CH3]2]",Volume of Exudate,granuloma pouch,8.5 mL
same,Weight of Pouch,granuloma pouch,4.34 g
same,Percent inhibitaion,carrageenan paw edema,29.7%
same,Percentage of edema,carrageenan paw edema,36.3%
"CCCCCC=CC(=O)NCCSCC(N)=O [Compound 4, NH2COCH2SCH2CH2NH-COCH=CH(CH2)4CH3]",Volume of Exudate,granuloma pouch,10.6 mL
same,Weight of Pouch,granuloma pouch,3.81 g
same,Percent inhibitaion,carrageenan paw edema,45.2%
same,Percentage of edema,carrageenan paw edema,28.3%
"CCCCCCCC=CC(=O)NCCSCC(N)=O [Compound 6, NH2COCH2SCH2CH2NH-COCH=CH(CH2)6CH3]",Percent inhibition,HCl-ethanol ulcers,69.7%
same,Ulcer index,HCl-ethanol ulcers,12.5
same,Percent inhibition,Aspirin ulcers,49.7%
same,Ulcer index,Aspirin ulcers,8.6
same,Percent inhibition,Stress ulcers,54.3%
same,Ulcer index,Stress ulcers,13.3
same,Gastric Volume,[1],0.93 ml/100 g wt.
same,Total Peptic Activity,[1],81.5 mg as tyrosine/ 100 g wt.
same,Total Acid Output,[1],91.1 μ Eq/100 g wt.
same,Percent healing,Acetic acid ulcers; 100 x 2 mg/kg/day orally,21.0%
same,Ulcer index,Acetic acid ulcers; 100 x 2 mg/kg/day orally,45.8
same,Percent healing,Acetic acid ulcers; 200 x 2 mg/kg/day orally,27.4%
same,Ulcer index,Acetic acid ulcers; 200 x 2 mg/kg/day orally,42.1
same,Percent healing,Acetic acid ulcers; 400 x 2 mg/kg/day orally,34.0%
same,Ulcer index,Acetic acid ulcers; 400 x 2 mg/kg/day orally,38.3
"CCCCCCCCCCC=CC(=O)NCCSSCCNC(=O)C=CCCCCCCCCCC [Compound 7, [SCH2CH2NH-COCH=CH(CH2)9CH3]2]",Percent inhibitaion,carrageenan paw edema,30.7%
same,Percentage of edema,carrageenan paw edema,33.4%
"CCCCCCCCCCC=CC(=O)NCCSCC(N)=O [Compound 8, NH2COCH2SCH2CH2NH-COCH=CH(CH2)9CH3]",Percent inhibitaion,carrageenan paw edema,49.6%
same,Percentage of edema,carrageenan paw edema,24.3%
